According to patent US12448373B2, “Azetidinyl-acetamides as CXCR7 inhibitors” (CHEMOCENTRYX, INC., priority 2021, dated 2025):

Each compound was assayed against T1, CXCR7 (Homo sapiens, UniProt P25106) (assay: CXCR7 β-arrestin recruitment assay in CHO-CXCR7 cells (ProLink/EA β-galactosidase complementation), induced by human SDF-1a). Conditions: assay buffer, SDF-1a at EC50 concentration.
T1 construct: expressed in transfected cells; host or cells: CHO cells (CHO-CXCR7), transgenes maintained with Hygromycin B and G418
T1 sequence (P25106 whole entry): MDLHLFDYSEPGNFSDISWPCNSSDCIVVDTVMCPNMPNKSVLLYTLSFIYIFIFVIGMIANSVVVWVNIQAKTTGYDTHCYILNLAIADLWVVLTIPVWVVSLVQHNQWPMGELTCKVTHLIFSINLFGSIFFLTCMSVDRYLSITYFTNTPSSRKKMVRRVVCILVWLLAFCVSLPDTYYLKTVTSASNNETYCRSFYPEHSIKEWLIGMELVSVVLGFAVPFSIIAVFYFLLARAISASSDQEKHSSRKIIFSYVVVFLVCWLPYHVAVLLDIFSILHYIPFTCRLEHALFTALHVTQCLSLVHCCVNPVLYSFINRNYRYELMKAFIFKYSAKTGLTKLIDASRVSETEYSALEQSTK
Format: cell-based
Summary of the method: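 SDF-1α-induced β-arrestin recruitment was measured by enzyme-fragment complementation (ProLink-CXCR7 with β-arrestin-EA) in stable CHO cells. Agonist was dosed at its EC50, determined the same day, alongside serially diluted compound for 1.5 h at 37 °C. Fluorogenic galactoside substrate (0.4 mM, 30 min) was read at 360/465 nm, with IC50 from 3-parameter nonlinear regression.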

Row | Compound | IC50
1 | CC(C)(NC(=O)CC1(NC(=O)c2cc(-c3ccc(F)cc3F)on2)CN([C@H]2CC[C@@](C)(O)CC2)C1)c1cccc(C(F)(F)F)n1 [Example 1.155] | < 5 nM
2 | CC(C)(NC(=O)CC1(NC(=O)c2cc(-c3ccc(F)cc3F)on2)CN([C@H]2CC[C@](C)(O)CC2)C1)c1cccc(C2CC2)c1 [Example 1.144] | 5 to 100 nM
3 | CC(C)(NC(=O)CC1(NC(=O)c2cc(-c3ccc(F)cc3F)on2)CN(C2CCC3(CC2)COC3)C1)c1ccc(F)cc1F [Example 1.254] | 100 to 1000 nM
4 | CC(C)(NC(=O)CC1(NC(=O)c2cc(-c3ccc(F)cc3F)on2)CN([C@H]2CC[C@](C)(O)CC2)C1)c1ccnc2[nH]ccc12 [Example 1.101] | 5 to 100 nM
5 | CC(C)(NC(=O)CC1(NC(=O)c2cc(-c3ccc(F)cc3F)on2)CN([C@H]2CC[C@@](C)(O)CC2)C1)c1cc(F)cc(F)c1 [Example 1.152] | < 5 nM
6 | CC(C)(NC(=O)CC1(NC(=O)c2cc(-c3ccc(F)cc3F)on2)CN(C2CCCCC2)C1)c1ccc(F)cc1F [Example 1.263] | 1000 to 20000 nM
7 | CC(C)(NC(=O)CC1(NC(=O)c2cn(-c3ccc(F)cc3F)cn2)CN(C2CCCCC2)C1)c1cccc(Cl)c1 [Example 1.023] | 1000 to 20000 nM
8 | CC(C)(NC(=O)CC1(NC(=O)c2cc(-c3ccc(F)cc3F)on2)CN([C@H]2CC[C@](C)(O)CC2)C1)c1ccncn1 [Example 1.181] | 5 to 100 nM
9 | CC(C)(NC(=O)CC1(NC(=O)c2nnc(-c3ccc(F)cc3F)s2)CN([C@H]2CC[C@](C)(O)CC2)C1)c1ncccc1F [Example 1.022] | 5 to 100 nM
10 | COc1cc(C(C)(C)NC(=O)CC2(NC(=O)c3cc(-c4ccc(F)cc4F)on3)CN(CC(C)(C)O)C2)ccn1 [Example 1.171] | 100 to 1000 nM
11 | CC(C)(NC(=O)CC1(NC(=O)c2cc(-c3ccc(F)cc3F)on2)CN(C2CCCCC2)C1)c1ccccc1 [Example 1.318] | < 5 nM
12 | CC(C)(NC(=O)CC1(NC(=O)c2cc(-c3ccc(F)cc3F)n[nH]2)CN([C@H]2CC[C@@](C)(O)CC2)C1)c1cccc(Cl)c1 [Example 1.053] | 1000 to 20000 nM
13 | CC(C)(NC(=O)CC1(NC(=O)c2cc(-c3ccc(F)cc3F)on2)CN(CC2CC2)C1)c1ccccn1 [Example 1.327] | 5 to 100 nM
14 | CC(C)(O)CN1CC(CC(=O)NC(C)(C)c2ncccn2)(NC(=O)c2cc(-c3ccc(F)cc3F)on2)C1 [Example 1.231] | 100 to 1000 nM
15 | Cc1cc(C)nc(C(C)(C)NC(=O)CC2(NC(=O)c3nnc(-c4ccc(F)cc4F)o3)CN([C@H]3CC[C@](C)(O)CC3)C2)n1 [Example 1.055] | 100 to 1000 nM
16 | CC(C)(NC(=O)CC1(NC(=O)c2cc(-c3ccc(F)cc3F)on2)CN(C2CCCCC2(F)F)C1)c1ccccn1 (centres unmarked) [Example 1.311] | 5 to 100 nM
17 | C[C@]1(O)CC[C@@H](N2CC(CC(=O)NCc3ccccn3)(NC(=O)c3cc(-c4ccc(F)cc4F)on3)C2)CC1 [Example 1.098] | 1000 to 20000 nM
18 | Cn1cc(C(C)(C)NC(=O)CC2(NC(=O)c3cc(-c4ccc(F)cc4F)on3)CN(C3CCCCC3)C2)cn1 [Example 1.273] | 5 to 100 nM
19 | CC(C)(O)CN1CC(CC(=O)NC(C)(C)c2cccc(Cl)c2)(NC(=O)c2cc(-c3ccc(F)cc3F)on2)C1 [Example 1.178] | < 5 nM
20 | COc1ccc(C(C)(C)NC(=O)CC2(NC(=O)c3cc(-c4ccc(F)cc4F)on3)CN([C@H]3CC[C@](C)(O)CC3)C2)c(F)c1 [Example 1.213] | 100 to 1000 nM

Row | Compound | IC50
21 | CC1(CN2CC(CC(=O)NC(C)(C)c3cccc(Cl)c3)(NC(=O)c3cc(-c4ccc(F)cc4F)on3)C2)COC1 [Example 1.216] | < 5 nM
22 | CC(C)(O)CN1CC(CC(=O)NC(C)(C)c2cccc(C#N)c2)(NC(=O)c2cc(-c3ccc(F)cc3F)on2)C1 [Example 1.145] | 5 to 100 nM
23 | CC(C)(NC(=O)CC1(NC(=O)c2nnc(-c3ccc(F)cc3F)s2)CN(CC2CC2)C1)c1cccc(Cl)c1 [Example 1.038] | 5 to 100 nM
24 | CC(C)(NC(=O)CC1(NC(=O)c2cc(-c3ccc(F)cc3F)on2)CN([C@H]2CC[C@@](C)(O)CC2)C1)c1ccc(F)cc1F [Example 1.288] | 5 to 100 nM
25 | COc1cc(Cl)cc(C(C)(C)NC(=O)CC2(NC(=O)c3cc(-c4ccc(F)cc4F)on3)CN(CC(C)(C)O)C2)c1 [Example 1.154] | < 5 nM
26 | C[C@]1(O)CC[C@H](N2CC(CC(=O)NC3(c4ncccn4)CC3)(NC(=O)c3cc(-c4ccc(F)cc4F)on3)C2)CC1 [Example 1.356] | 5 to 100 nM
27 | CC(C)(NC(=O)CC1(NC(=O)c2cc(-c3ccc(F)cc3F)on2)CN(C2CCC3(CCC3)CC2)C1)c1ccccn1 [Example 1.296] | 100 to 1000 nM
28 | Cc1cc(C)nc(C(C)(C)NC(=O)CC2(NC(=O)c3nnc(-c4ccc(F)cc4F)s3)CN(CC(C)C)C2)n1 [Example 1.039] | 5 to 100 nM
29 | CC(C)(NC(=O)CC1(NC(=O)c2cc(-c3ccc(F)cc3F)on2)CN([C@H]2CC[C@@](C)(O)CC2)C1)c1cc(Cl)ccc1F [Example 1.132] | < 5 nM
30 | O=C(CC1(NC(=O)c2cc(-c3ccc(F)cc3F)on2)CN(C2CCCCC2)C1)N[C@H](C(=O)O)c1ccccc1 [Example 1.283] | 1000 to 20000 nM
31 | CC(C)(O)CN1CC(CC(=O)NC(C)(C)c2ccc(F)cc2)(NC(=O)c2cc(-c3ccc(F)cc3F)on2)C1 [Example 1.248] | 100 to 1000 nM
32 | CC(C)(NC(=O)CC1(NC(=O)c2cc(-c3ccc(F)cc3F)on2)CN([C@H]2CC[C@](C)(O)CC2)C1)c1cc(F)cc(F)c1 [Example 1.153] | < 5 nM
33 | CC(C)(NC(=O)CC1(NC(=O)c2cc(-c3ccc(F)cc3F)on2)CN([C@H]2CC[C@@](C)(O)CC2)C1)c1cccc(OC(F)(F)F)c1 [Example 1.197] | < 5 nM
34 | C[C@]1(O)CC[C@H](N2CC(CC(=O)NCc3ccccc3)(NC(=O)c3cc(-c4ccc(F)cc4F)on3)C2)CC1 [Example 1.128] | 1000 to 20000 nM
35 | CC(C)(NC(=O)CC1(NC(=O)c2cc(-c3ccc(F)cc3F)on2)CN([C@H]2CC[C@@](C)(O)CC2)C1)c1ccc(Cl)cc1 [Example 1.249] | 5 to 100 nM
36 | CC(C)(O)CN1CC(CC(=O)NC(C)(C)c2ccc(Cl)cc2)(NC(=O)c2cc(-c3ccc(F)cc3F)on2)C1 [Example 1.138] | 100 to 1000 nM
37 | CC(C)(NC(=O)CC1(NC(=O)c2nnc(-c3ccc(F)cc3F)s2)CN([C@H]2CC[C@](C)(O)CC2)C1)c1ccccn1 [Example 1.063] | 5 to 100 nM
38 | COc1ccnc(C(C)(C)NC(=O)CC2(NC(=O)c3cc(-c4ccc(F)cc4F)on3)CN([C@H]3CC[C@@](C)(O)CC3)C2)c1 [Example 1.200] | 5 to 100 nM
39 | COc1cc(C)cc(C(C)(C)NC(=O)CC2(NC(=O)c3cc(-c4ccc(F)cc4F)on3)CN([C@H]3CC[C@@](C)(O)CC3)C2)c1 [Example 1.118] | 5 to 100 nM
40 | Cc1cccc(C(C)(C)NC(=O)CC2(NC(=O)c3cc(-c4ccc(F)cc4F)on3)CN([C@H]3CC[C@](C)(O)CC3)C2)n1 [Example 1.121] | < 5 nM

Row | Compound | IC50
41 | CC(C)(NC(=O)CC1(NC(=O)c2cc(-c3ccc(F)cc3F)on2)CN([C@H]2CC[C@@](C)(O)CC2)C1)c1ccc(F)cc1Cl [Example 1.252] | 5 to 100 nM
42 | CC(C)(NC(=O)CC1(NC(=O)c2cc(-c3ccc(F)cc3F)on2)CN([C@H]2CC[C@](C)(O)CC2)C1)c1cccnc1 [Example 1.194] | 5 to 100 nM
43 | Cc1cccc(C(C)(C)NC(=O)CC2(NC(=O)c3cc(-c4ccc(F)cc4F)on3)CN([C@H]3CC[C@](C)(O)CC3)C2)c1 [Example 1.237] | < 5 nM
44 | Cc1cc(C(C)(C)NC(=O)CC2(NC(=O)c3cc(-c4ccc(F)cc4F)on3)CN(CC3COC3)C2)ccn1 [Example 1.136] | 100 to 1000 nM
45 | Cc1cncc(C(C)(C)NC(=O)CC2(NC(=O)c3cc(-c4ccc(F)cc4F)on3)CN([C@H]3CC[C@@](C)(O)CC3)C2)c1 [Example 1.139] | 5 to 100 nM
46 | CC(C)(NC(=O)CC1(NC(=O)c2cn(-c3ccc(F)cc3F)nn2)CN([C@H]2CC[C@@](C)(O)CC2)C1)c1cccc(Cl)c1 [Example 1.066] | 5 to 100 nM
47 | C[C@]1(O)CC[C@H](N2CC(CC(=O)NCc3cccc4[nH]ccc34)(NC(=O)c3cc(-c4ccc(F)cc4F)on3)C2)CC1 [Example 1.100] | < 5 nM
48 | COc1cc(C)cc(C(C)(C)NC(=O)CC2(NC(=O)c3nnc(-c4ccc(F)cc4F)s3)CN([C@H]3CC[C@](C)(O)CC3)C2)n1 [Example 1.346] | 5 to 100 nM
49 | O=C(CC1(NC(=O)c2cc(-c3ccc(F)cc3F)on2)CN(C2CCCCC2)C1)NC1(c2ccccn2)CC1 [Example 1.306] | 5 to 100 nM
50 | Cc1cncc(C(C)(C)NC(=O)CC2(NC(=O)c3cc(-c4ccc(F)cc4F)on3)CN([C@H]3CC[C@](C)(O)CC3)C2)c1 [Example 1.140] | 5 to 100 nM
51 | Cc1cc(C)nc(C(C)(C)NC(=O)CC2(NC(=O)c3nnc(-c4ccc(F)cc4F)s3)CN([C@H]3CC[C@](C)(O)CC3)C2)c1 [Example 1.031] | < 5 nM
52 | CC(C)N1CC(CC(=O)NC2(c3ncccn3)CC2)(NC(=O)c2cc(-c3ccc(F)cc3F)on2)C1 [Example 1.333] | 100 to 1000 nM
53 | Cc1cccnc1C(C)(C)NC(=O)CC1(NC(=O)c2nnc(-c3ccc(F)cc3F)s2)CN([C@H]2CC[C@](C)(O)CC2)C1 [Example 1.012] | 100 to 1000 nM
54 | CC(C)(NC(=O)CC1(NC(=O)c2cc(-c3ccc(F)cc3F)on2)CN(CC2CCC2)C1)c1ccccn1 [Example 1.020] | 5 to 100 nM
55 | CC(C)(NC(=O)CC1(NC(=O)c2cc(-c3ccc(F)cc3F)on2)CN([C@H]2CC[C@](C)(O)CC2)C1)c1ccccn1 [Example 1.035] | 5 to 100 nM
56 | CC(C)CN1CC(CC(=O)NC(C)(C)c2cccc(Cl)c2)(NC(=O)c2cc(-c3ccc(F)cc3F)on2)C1 [Example 1.120] | 5 to 100 nM
57 | Cc1cc(C(C)(C)NC(=O)CC2(NC(=O)c3cc(-c4ccc(F)cc4F)on3)CN(CC(C)C)C2)ccn1 [Example 1.122] | 5 to 100 nM
58 | CC1(C)CCC(N2CC(CC(=O)NC(C)(C)c3cc(Cl)cc(Cl)c3)(NC(=O)c3cc(-c4ccc(F)cc4F)on3)C2)CC1 [Example 1.105] | < 5 nM
59 | Cc1ccc(C(C)(C)NC(=O)CC2(NC(=O)c3cc(-c4ccc(F)cc4F)on3)CN([C@H]3CC[C@](C)(O)CC3)C2)c(F)c1 [Example 1.247] | 100 to 1000 nM
